Values joined by “and” are separate entries in the source; they are usually repeats but may differ in a detail not shown here. Equal values may be shown once.
Columns and labels:
Assay type in all cases: in vivo
[1] = test system: transgenic tobacco overexpressing Arabidopsis SDPS F240L gene and wild-type tobacco; experiment: Herbicide damage of transgenic tobacco sprayed with 75 g/ha Aclonifen or 25 g/ha herbicide Z; conditions: 7 days post treatment; for average herbicide damage score: 75 g/ha
Description: A further set of transgenic tobacco overexpressing the Arabidopsis SDPS F240L gene (SEQ ID NO.3) were created as described above. These plants were sprayed with 75 g/ha Aclonifen or 25 g/ha herbicide Z. The plants were assessed for herbicide damage at 7 days post treatment and compared to wild-type tobacco plants.
Numerous transgenic tobacco events expressing the Arabidopsis SDPS2 F240L gene (SEQ ID NO.3) show no damage from the herbicide treatment in contrast to the damage seen on the control plants. The average herbicide damage scores for the transgenic tobacco population versus the control wild-type plants are shown in table 6.

[2] = test system: transgenic tobacco expressing SDPS genes and wild-type Samsun tobacco; experiment: Herbicide tolerance of transgenic tobacco sprayed with 1000 g/ha Herbicide Compound 1, visual damage score; conditions: for Average Damage (%): 1000 g/ha spray, average across population
Description: Populations of transgenic tobacco comprising 20-30 transgenic events per plant transformation constructs were generated as described in example 4. These lines were clonally propagated and 1 clone per event was sprayed with 1000 g/ha of Herbicide Compound 1. Herbicidal damage was visually assessed across the population and a herbicide damage score given at 7 and 14 days. […] indicates no visible damage or stunting whereas a score of 100 indicates a complete death of the plant.
The results in FIG. 3 show the damage scores for 4 populations of plants expressing either Arabidopsis SDPS2 gene (SEQ ID NO.2), the Arabidopsis SDPS2 F240L mutated gene (SEQ ID NO.3). the Chlorella fusca SDPS gene (SEQ ID NO. 10) or the Chlorella fusca SDPS F227L mutated gene (SEQ ID NO.11). A control population of wild-type Samsun tobacco was also assessed for herbicide damage. […] The Arabidopsis gene (SEQ ID NO.2) performs better than the Chlorella wild-type gene in terms of herbicide tolerance and this tolerance is again improved by the addition of the F240L mutation (SEQ ID NO.3).

[3] = test system: Nicotiana tabacum Samsun wild type and transgenic lines (plantlets); experiment: Tolerance of transgenic tobacco T1 lines in liquid culture, bleaching damage score; conditions: after 7 days
Description: Nicotiana tabacum Samsun wild type and transgenic lines were sterilized by placing in 30 ml Universals containing approximately 15 ml freshly made 2% Virkon and rotated on a roller for 15 mins. The Virkon was pipetted off using an extended fine tip mini pastette and the seed washed 4 times with 1% PPM (Plant Preservative Mixture, P820, 250 ml. Apollo Scientific Ltd.)
Seed was germinated on 90 mm Petri dishes containing 1/3 MS+0.8% agarose (SPI, Duchefa #DU 0463). pH5.7 (for WT) and 1/3 MS+0.8% agarose+100 ug/ml kanamycin (for the transgenic). Approximately 100 seed of each was spread on to each Petri dish. NB the transgenic seed is not homozygous therefore was plated on Kan to select. (MS=Murashige & Skoog MS Medium, #M0221, Melford Labs).
Plates were placed in a clear plastic “incubating box” (lids under plate) and incubated in a controlled environment room with the following conditions: • Temperature: Day 25° C./Night 25° C. • Light settings: Photo period 16 hours, Light level ˜50 μmol/m^2/s Dose Response Test:
7 day old tobacco plantlets (3 plantlets per well) were transferred aseptically to 24 well plates (cell-culture cluster flat bottom with lid) (Corning Costar #3524) containing 2 ml % MS+30 mM sucrose (Fisher #10638403), pH5.7 per well. Herbicide 2 was two-fold serially diluted in DMSO starting at 10 ppm and added to the media. DMSO only was added to the zero compound control wells. NB.
Plates were placed in clear plastic “Incubating boxes” (lid under plate) and incubated for 2 weeks in a controlled environment room with the following conditions: • Temperature: Day 24° C./Night 18° C. • Light settings: Photo period 16 hours, Light level 600 μmol/m^2/s. Assessment:
Plantlets were assessed visually for bleaching symptomology after 7 days and a damage score given for each well.

Structure (SMILES): Nc1c([N+](=O)[O-])ccc(Oc2ccccc2)c1Cl [Aclonifen]
- average herbicide damage score ([1]; Wild type tobacco): 40
- average herbicide damage score ([1]; pBin AraSDPS2 F240L transgenic tobacco): 16.17
- herbicide damage score ([1]; wild type tobacco, individual control plants, Aclonifen 75 g/ha spray): 35 (4×) and 30 (2×) and 60 (2×)

Structure (SMILES): CCOC(=O)C(CC)N(c1c(C)cccc1C)S(=O)(=O)CCl (stereo not shown) [Herbicide Compound Ex. 1]
- Average Damage (%) ([2]; WT Control tobacco): 23.125%
- Average Damage (%) ([2]; tobacco with construct pBin TMV AraSDPS2): 13.25%
- Average Damage (%) ([2]; tobacco with construct pBin TMV AraSDPS2_F240L): 5%
- Average Damage (%) ([2]; tobacco with construct pBin TMV CfSDPS): 25%
- Average Damage (%) ([2]; tobacco with construct pBin TMV CfSDPS_F227L): 10.05%
- tolerance to herbicide (in words) ([2]; tobacco expressing Chlorella fusca SDPS F227L (SEQ ID NO.11)): does display increased tolerance
- tolerance to herbicide (in words) ([2]; tobacco overexpressing Chlorella fusca SDPS (SEQ ID NO. 10)): does not increase tolerance

Structure (SMILES): CCOC(=O)C(C)N(c1c(C)cccc1C)S(=O)(=O)CC (stereo not shown) [Herbicide Compound Ex. 2]
- bleaching damage score (two replicate plates a/b) ([3]; 0.75 ppm, WT (Samsun)): 0/0
- bleaching damage score (two replicate plates a/b) ([3]; 0.75 ppm, tobacco line ARA SDPS1): 0/0
- bleaching damage score (two replicate plates a/b) ([3]; 0.75 ppm, tobacco line ARA SDPS F240V 1): 0/0
- bleaching damage score (two replicate plates a/b) ([3]; 1.25 ppm, WT (Samsun)): 0/0
- bleaching damage score (two replicate plates a/b) ([3]; 1.25 ppm, tobacco line ARA SDPS1): 0/0
- bleaching damage score (two replicate plates a/b) ([3]; 1.25 ppm, tobacco line ARA SDPS F240V 1): 0/0
- bleaching damage score (two replicate plates a/b) ([3]; 2.5 ppm, WT (Samsun), listed as Herbicide 2): 25/25 and 50/50
- bleaching damage score (two replicate plates a/b) ([3]; 2.5 ppm, tobacco line ARA SDPS1, listed as Herbicide 2): 50/50 and 50/25 and 25/25
- bleaching damage score (two replicate plates a/b) ([3]; 2.5 ppm, tobacco line ARA SDPS F240V 1): 25/25
- bleaching damage score (two replicate plates a/b) ([3]; 5 ppm, WT (Samsun), listed as Herbicide 2): 90/100 and 95/90
- bleaching damage score (two replicate plates a/b) ([3]; 5 ppm, tobacco line ARA SDPS1, listed as Herbicide 2): 100/100 and 90/80 and 80/95
- bleaching damage score (two replicate plates a/b) ([3]; 5 ppm, tobacco line ARA SDPS F240V 1, listed as Herbicide 2): 50/50 (2×) and 50/25
- bleaching damage score (two replicate plates a/b) ([3]; 10 ppm, WT (Samsun), listed as Herbicide 2): 100/100 and 95/100
- bleaching damage score (two replicate plates a/b) ([3]; 10 ppm, tobacco line ARA SDPS1): 100/100
- bleaching damage score (two replicate plates a/b) ([3]; 10 ppm, tobacco line ARA SDPS F240V 1, listed as Herbicide 2): 90/100 (2×) and 100/100

Reference: patent US12565661B2, “Compositions and methods for weed control” (Syngenta Crop Protection AG, priority 2019, dated 2026)
